Reference: US9586951B2 (FUJIFILM Corporation, priority 2013, dated 2017)

target: T1, ATM (Homo sapiens, UniProt Q13315); assay: ATM inhibition test (phosphorylation of Chk2 generated by ionizing radiation, AlphaScreen SureFire); assay type: cell-based; details: phosphorylated Chk2 in NCI-H460 cells, ionizing radiation 8Gy, 1 hour after test compound treatment; read-out: ATM inhibitory activity
T1 construct: detecting phosphorylation of Chk2 in a human non-small cell lung cancer cell line NCI-H460 (ATCC company); host or cells: NCI-H460 human non-small cell lung cancer cells
Outline: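 Phosphorylated Chk2 read by AlphaScreen SureFire in human non-small cell lung cancer NCI-H460 cells, 1 hour after 8Gy ionizing radiation at 37° C. Compound added 1 hour before irradiation. Percent inhibition normalised between irradiated and non-irradiated drug-untreated signals.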

T1 sequence (Q13315 whole entry): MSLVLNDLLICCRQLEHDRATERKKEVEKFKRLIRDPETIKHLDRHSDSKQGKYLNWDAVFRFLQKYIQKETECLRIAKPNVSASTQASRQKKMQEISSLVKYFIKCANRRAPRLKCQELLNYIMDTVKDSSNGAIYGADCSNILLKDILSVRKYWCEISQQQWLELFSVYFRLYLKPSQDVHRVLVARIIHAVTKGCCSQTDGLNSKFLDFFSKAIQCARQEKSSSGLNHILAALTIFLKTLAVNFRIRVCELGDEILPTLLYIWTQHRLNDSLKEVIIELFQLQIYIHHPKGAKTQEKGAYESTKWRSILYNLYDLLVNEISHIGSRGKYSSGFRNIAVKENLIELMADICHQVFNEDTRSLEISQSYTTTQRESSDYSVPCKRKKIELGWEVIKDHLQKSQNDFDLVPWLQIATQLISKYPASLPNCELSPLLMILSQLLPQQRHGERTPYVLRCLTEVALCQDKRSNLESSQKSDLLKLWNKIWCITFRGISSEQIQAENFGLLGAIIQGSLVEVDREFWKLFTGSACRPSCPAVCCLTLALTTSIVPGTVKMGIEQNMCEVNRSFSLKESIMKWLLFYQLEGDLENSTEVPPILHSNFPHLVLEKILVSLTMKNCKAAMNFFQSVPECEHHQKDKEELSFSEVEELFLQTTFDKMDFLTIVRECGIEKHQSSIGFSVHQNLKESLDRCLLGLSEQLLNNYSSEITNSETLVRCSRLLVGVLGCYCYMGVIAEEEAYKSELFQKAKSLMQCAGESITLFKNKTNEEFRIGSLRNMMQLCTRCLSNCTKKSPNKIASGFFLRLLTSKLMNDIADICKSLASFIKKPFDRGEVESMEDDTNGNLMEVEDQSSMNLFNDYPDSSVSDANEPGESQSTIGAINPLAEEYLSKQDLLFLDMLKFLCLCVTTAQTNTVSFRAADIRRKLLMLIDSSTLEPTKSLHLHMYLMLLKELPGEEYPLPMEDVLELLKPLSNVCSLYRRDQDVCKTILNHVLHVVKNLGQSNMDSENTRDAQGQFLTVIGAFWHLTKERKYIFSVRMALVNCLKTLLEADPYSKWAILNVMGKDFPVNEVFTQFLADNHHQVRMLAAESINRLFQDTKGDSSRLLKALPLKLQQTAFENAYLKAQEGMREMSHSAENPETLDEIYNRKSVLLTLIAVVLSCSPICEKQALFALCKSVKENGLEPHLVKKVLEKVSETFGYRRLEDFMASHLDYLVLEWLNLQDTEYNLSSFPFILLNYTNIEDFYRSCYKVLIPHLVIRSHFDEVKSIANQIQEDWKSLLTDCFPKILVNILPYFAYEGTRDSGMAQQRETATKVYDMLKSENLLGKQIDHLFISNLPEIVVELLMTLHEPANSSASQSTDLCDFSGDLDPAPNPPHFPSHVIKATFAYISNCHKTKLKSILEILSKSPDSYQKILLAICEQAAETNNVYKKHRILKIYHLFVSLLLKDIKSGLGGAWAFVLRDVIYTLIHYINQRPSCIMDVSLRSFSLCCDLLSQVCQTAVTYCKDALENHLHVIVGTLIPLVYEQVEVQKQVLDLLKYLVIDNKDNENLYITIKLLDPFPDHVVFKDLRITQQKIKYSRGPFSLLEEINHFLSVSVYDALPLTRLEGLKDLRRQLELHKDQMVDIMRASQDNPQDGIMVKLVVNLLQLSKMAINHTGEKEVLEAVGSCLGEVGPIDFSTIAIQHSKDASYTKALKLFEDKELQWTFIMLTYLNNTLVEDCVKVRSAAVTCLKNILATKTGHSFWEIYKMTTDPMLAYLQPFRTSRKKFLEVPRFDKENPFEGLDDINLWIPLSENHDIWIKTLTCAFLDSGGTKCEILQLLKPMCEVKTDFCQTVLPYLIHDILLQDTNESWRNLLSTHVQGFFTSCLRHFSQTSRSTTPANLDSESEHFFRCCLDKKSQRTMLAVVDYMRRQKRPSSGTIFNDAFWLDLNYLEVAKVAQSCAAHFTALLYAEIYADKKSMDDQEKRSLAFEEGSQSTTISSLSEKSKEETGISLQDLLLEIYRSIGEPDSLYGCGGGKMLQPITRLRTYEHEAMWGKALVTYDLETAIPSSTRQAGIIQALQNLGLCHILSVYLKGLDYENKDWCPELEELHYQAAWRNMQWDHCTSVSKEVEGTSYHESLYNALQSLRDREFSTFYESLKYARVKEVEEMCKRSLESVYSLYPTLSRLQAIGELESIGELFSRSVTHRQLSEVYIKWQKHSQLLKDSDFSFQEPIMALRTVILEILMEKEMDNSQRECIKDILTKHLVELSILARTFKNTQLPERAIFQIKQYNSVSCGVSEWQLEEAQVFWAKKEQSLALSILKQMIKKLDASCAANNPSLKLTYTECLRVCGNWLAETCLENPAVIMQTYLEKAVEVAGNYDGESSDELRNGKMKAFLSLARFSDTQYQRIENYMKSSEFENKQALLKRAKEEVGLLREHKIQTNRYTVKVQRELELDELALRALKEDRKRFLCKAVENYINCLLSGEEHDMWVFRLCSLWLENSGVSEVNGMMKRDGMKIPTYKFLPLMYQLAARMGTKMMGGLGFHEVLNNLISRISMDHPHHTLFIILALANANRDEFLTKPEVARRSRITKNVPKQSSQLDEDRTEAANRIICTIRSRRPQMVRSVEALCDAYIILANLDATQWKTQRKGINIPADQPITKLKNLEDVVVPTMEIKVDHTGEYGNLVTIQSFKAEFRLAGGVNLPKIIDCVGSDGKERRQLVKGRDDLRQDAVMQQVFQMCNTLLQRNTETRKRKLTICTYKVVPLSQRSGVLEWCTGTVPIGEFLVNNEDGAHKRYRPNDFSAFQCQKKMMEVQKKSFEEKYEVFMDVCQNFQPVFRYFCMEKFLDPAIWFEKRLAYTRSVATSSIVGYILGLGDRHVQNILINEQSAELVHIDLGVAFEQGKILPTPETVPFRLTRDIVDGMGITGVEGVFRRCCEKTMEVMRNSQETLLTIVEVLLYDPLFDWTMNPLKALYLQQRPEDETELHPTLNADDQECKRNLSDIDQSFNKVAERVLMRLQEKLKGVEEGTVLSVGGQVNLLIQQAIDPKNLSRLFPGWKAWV

Row | IC50 | Compound
1 | 500 to 2000 nM | O=c1cc(N2CCOCC2)cc(-c2cccc3c2Sc2ccc(NCCCc4cccnc4)cc2S3)[nH]1 [Example 1-12-27, 4-Morpholino-6-(7-((3-(pyridin-3-yl)propyl)amino)thianthren-1-yl)pyridin-2(1H)-one]
2 | 100 to 500 nM | CC(Nc1ccc2c(c1)Cc1cccc(-c3cc(N4CCOCC4)cc(=O)[nH]3)c1O2)c1cc(Cl)ncn1 (stereo not drawn) [Example 2-14-59, 6-(7-((1-(6-Chloropyrimidin-4-yl)ethyl)amino)-9H-xanthen-4-yl)-4-morpholino pyridin-2(1H)-one]
3 | 100 to 500 nM | O=c1cc(N2CCOCC2)cc(-c2cccc3c2Sc2ccc(NCc4ccnc(N5CCOCC5)n4)cc2S3)[nH]1 [Example 1-12-41, 4-Morpholino-6-(7-(((2-morpholinopyrimidin-4-yl)methyl)amino)thianthren-1-yl)pyridin-2(1H)-one]
4 | 500 to 2000 nM | CC[C@H](N)C(CC(C)C)Nc1ccc2c(c1)Sc1cccc(-c3cc(N4CCOCC4)cc(=O)[nH]3)c1S2 (stereo partly drawn) [Example 1-20-7]
5 | 100 to 500 nM | COc1ccc(CNc2ccc3c(c2)Sc2cccc(-c4cc(N5CCOCC5)cc(=O)[nH]4)c2S3)cn1 [Example 1-12-16, 6-(7-(((6-Methoxypyridin-3-yl)methyl)amino)thianthren-1-yl)-4-morpholino pyridin-2 (1H)-one]
6 | 100 to 500 nM | CC(CN1CCC(Nc2ccc3c(c2)Cc2cccc(-c4cc(N5CCOCC5)cc(=O)[nH]4)c2O3)CC1)c1ccccc1 (stereo not drawn) [Example 2-28-37, 4-Morpholino-6-(7-((1-(2-phenylpropyl)piperidin-4-yl)amino)-9H-xanthen-4-yl) pyridin-2(1H)-one]
7 | 100 to 500 nM | CC(Nc1ccc2c(c1)Sc1cccc(-c3cc(N4CCOCC4)cc(=O)[nH]3)c1S2)c1cc(Cl)ncn1 (stereo not drawn) [Example 1-12-83, 6-(7-((1-(6-Chloropyrimidin-4-yl)ethyl)amino)thianthren-1-yl)-4-morpholino pyridin-2 (1H)-one]
8 | 100 to 500 nM | CCOc1ccc(CNc2ccc3c(c2)Cc2cccc(-c4cc(N5CCOCC5)cc(=O)[nH]4)c2O3)cn1 [Example 2-2-23, 6-(7-(((6-Ethoxypyridin-3-yl)methyl)amino)-9H-xanthen-4-yl)-4-morpholino pyridin-2(1H)-one]
9 | 100 to 500 nM | O=c1cc(N2CCOCC2)cc(-c2cccc3c2Sc2ccc(NCc4ccsc4)cc2S3)[nH]1 [Example 1-12-1, 4-morpholino-6-(7-((thiophen-3-ylmethyl)amino)thianthren-1-yl)pyridin-2(1H)-one]
10 | 500 to 2000 nM | O=c1cc(N2CCOCC2)cc(-c2cccc3c2Sc2ccc(NCc4cnccn4)cc2C3)[nH]1 [Example 3-8-5, 4-Morpholino-6-(7-((pyrazin-2-ylmethyl)amino)-9H-thioxanthen-4-yl)pyridin-2 (1H)-one]
11 | 500 to 2000 nM | CC(C)(C)OC(=O)N1CCC(C#N)(Nc2ccc3c(c2)Cc2cccc(-c4cc(N5CCOCC5)cc(=O)[nH]4)c2O3)CC1 [Example 2-26, tert-butyl 4-cyano-4-((5-(4-morpholino-6-oxo-1,6-dihydropyridin-2-yl)-9H-xanthen-2-yl)amino)piperidine-1-carboxylate]
12 | 500 to 2000 nM | Cc1ccsc1CNc1ccc2c(c1)Sc1cccc(-c3cc(N4CCOCC4)cc(=O)[nH]3)c1S2 [Example 1-12-59, 6-(7-(((3-Methylthiophen-2-yl)methyl)amino)thianthren-1-yl)-4-morpholino pyridin-2 (1H)-one]
13 | 100 to 500 nM | CN[C@@H](Cc1ccccc1)C(=O)Nc1ccc2c(c1)Sc1cccc(-c3cc(N4CCOCC4)cc(=O)[nH]3)c1S2 [Example 1-4, (S)-2-(methylamino)-N-(6-(4-morpholino-6-oxo-1,6-dihydropyridin-2-yl)thianthren-2-yl)-3-phenyl propanamide]
14 | 100 to 500 nM | O=c1cc(N2CCOCC2)cc(-c2cccc3c2Oc2ccc(NCc4ccc(-n5cccn5)nc4)cc2C3)[nH]1 [Example 2-2-31, 6-(7-(((6-(1H-Pyrazol-1-yl)pyridin-3-yl)methyl)amino)-9H-xanthen-4-yl)-4-morpholino pyridin-2(1H)-one]
15 | 100 to 500 nM | CCNc1cncc(CNc2ccc3c(c2)Cc2cccc(-c4cc(N5CCOCC5)cc(=O)[nH]4)c2O3)c1 [Example 2-6-1, 6-(7-(((5-(ethylamino)pyridin-3-yl)methyl)amino)-9H-xanthen-4-yl)-4-morpholinopyridin-2(1H)-one]
16 | 100 to 500 nM | CC(Nc1ccc2c(c1)Sc1cccc(-c3cc(N4CCOCC4)cc(=O)[nH]3)c1S2)c1ccnc(C#N)n1 (stereo not drawn) [Example 1-12-82, 4-(1-((6-(4-Morpholino-6-oxo-1,6-dihydropyridin-2-yl)thianthren-2-yl)amino)ethyl) pyrimidine-2-carbonitrile]

Row | IC50 | Compound
17 | 100 to 500 nM | COc1cc(OC)nc(CN2CCC(Nc3ccc4c(c3)Cc3cccc(-c5cc(N6CCOCC6)cc(=O)[nH]5)c3O4)CC2)n1 [Example 2-28-20, 6-(7-((1-((4,6-Dimethoxypyrimidin-2-yl)methyl)piperidin-4-yl)amino)-9H-xanthen-4-yl)-4-morpholino pyridin-2(1H)-one]
18 | 100 to 500 nM | Cc1nccc(C(C)Nc2ccc3c(c2)Cc2cccc(-c4cc(N5CCOCC5)cc(=O)[nH]4)c2O3)n1 (stereo not drawn) [Example 2-14-48, 6-(7-((1-(2-Methylpyrimidin-4-yl)ethyl)amino)-9H-xanthen-4-yl)-4-morpholino pyridin-2 (1H)-one]
19 | 100 to 500 nM | Cc1cccc(C(C)Nc2ccc3c(c2)Cc2cccc(-c4cc(N5CCOCC5)cc(=O)[nH]4)c2O3)n1 (single isomer, unassigned) [Example 2-14-85-1, 6-(7-((1-(6-methylpyridin-2-yl)ethyl)amino)-9H-xanthen-4-yl)-4-morpholinopyridin-2(1H)-one]
20 | < 100 nM | COCCN1CCOC(C(Nc2ccc3c(c2)Sc2cccc(-c4cc(N5CCOCC5)cc(=O)[nH]4)c2S3)c2ccc(C)cn2)C1 (single isomer, unassigned) [Example 1-56-8, 6-(7-(((4-(2-Methoxyethyl)morpholin-2-yl)(5-methylpyridin-2-yl)methyl)amino)thianthren-1-yl)-4-morpholino pyridin-2(1H)-one]
21 | 100 to 500 nM | O=c1cc(N2CCOCC2)cc(-c2cccc3c2Oc2ccc(NCc4cscn4)cc2C3)[nH]1 [Example 2-14-36, 4-Morpholino-6-(7-((thiazol-4-ylmethyl)amino)-9H-xanthen-4-yl) pyridin-2(1H)-one]
22 | 100 to 500 nM | O=c1cc(N2CCOCC2)cc(-c2cccc3c2Oc2ccc(NCc4ccncc4Cl)cc2C3)[nH]1 [Example 2-2-25, 6-(7-(((3-Chloropyridin-4-yl)methyl)amino)-9H-xanthen-4-yl)-4-morpholino pyridin-2 (1H)-one]
23 | < 100 nM | O=c1cc(N2CCOCC2)cc(-c2cccc3c2Sc2ccc(N[C@@H]4COC[C@@H]4N4CCOCC4)cc2S3)[nH]1 (relative stereo) [Example 1-61, cis-4-morpholino-6-(7-((4-morpholinotetrahydrofuran-3-yl)amino)thianthren-1-yl)pyridin-2(1 H)-one]
24 | 100 to 500 nM | O=C1CCCN1c1cncc(CNc2ccc3c(c2)Cc2cccc(-c4cc(N5CCOCC5)cc(=O)[nH]4)c2O3)c1 [Example 2-2-67, 4-Morpholino-6-(7-(((5-(2-oxopyrrolidin-1-yl)pyridin-3-yl)methyl)amino)-9H-xanthen-4-yl)pyridin-2(1H)-one]
25 | 100 to 500 nM | Cc1cnc(C(CCN(C)C)CNc2ccc3c(c2)Sc2cccc(-c4cc(N5CCOCC5)cc(=O)[nH]4)c2S3)cn1 (stereo not drawn) [Example 12-3, 6-(7-((4-(Dimethylamino)-2-(5-methylpyrazin-2-yl)butyl)amino)thianthren-1-yl)-4-morpholinopyridin-2(1H)-one]
26 | 100 to 500 nM | O=c1cc(N2CCOCC2)cc(-c2nccc3c2Oc2ccc(NCc4cncc(C5CC5)c4)cc2C3)[nH]1 [Example 2-41-11, 6-(7-(((5-Cyclopropylpyridin-3-yl)methyl)amino)-5H-chromeno[2,3-c]pyridin-1-yl)-4-morpholino pyridin-2(1H)-one]
27 | 100 to 500 nM | CCOC(=O)c1cccc(CNc2ccc3c(c2)Cc2cccc(-c4cc(N5CCOCC5)cc(=O)[nH]4)c2O3)n1 [Example 2-14-73, Ethyl 6-(((5-(4-morpholino-6-oxo-1,6-dihydropyridin-2-yl)-9H-xanthen-2-yl)amino)methyl)picolinate]
28 | 100 to 500 nM | O=c1cc(N2CCOCC2)cc(-c2cccc3c2Sc2ccc(NCCN4CC(F)(F)C4)cc2S3)[nH]1 [Example 1-10-3, 6-(7-((2-(3,3-Difluoroazetidin-1-yl)ethyl)amino)thianthren-1-yl)-4-morpholinopyridin-2(1H)-one]
29 | < 100 nM | Cc1cnc(C(CCN(C)CCF)Nc2ccc3c(c2)Sc2cccc(-c4cc(N5CCOCC5)cc(=O)[nH]4)c2S3)cn1 (single isomer, unassigned) [Example 10-3-6, 6-(7-((3-((2-Fluoroethyl) (methyl)amino)-1-(5-methylpyrazin-2-yl)propyl)amino)thianthren-1-yl)-4-morpholino pyridin-2(1H)-onc]
30 | 100 to 500 nM | CCCC(Nc1ccc2c(c1)Sc1cccc(-c3cc(N4CCOCC4)cc(=O)[nH]3)c1S2)c1cncc(OC)c1 (stereo not drawn) [Example 1-12-26, 6-(7-((1-(5-Methoxypyridin-3-yl)butyl)amino)thianthren-1-yl)-4-morpholino pyridin-2 (1H)-one]
31 | 100 to 500 nM | Cc1ccnc(C(CF)Nc2ccc3c(c2)Sc2cccc(-c4cc(N5CCOCC5)cc(=O)[nH]4)c2S3)c1 (stereo not drawn) [Example 1-12-133, 6(7-((2-Fluoro-1-(4-methylpyridin-2-yl)ethyl)amino)thianthren-1-yl)-4-morpholino pyridin-2(1H)-one]
32 | 500 to 2000 nM | O=c1cc(N2CCOCC2)cc(-c2cccc3c2Oc2ccc(NCc4ccc(CO)o4)cc2C3)[nH]1 [Example 2-13-3, 6-(7-(((5-(Hydroxymethyl)furan-2-yl)methyl)amino)-9H-xanthen-4-yl)-4-morpholino pyridin-2(1H)-one]

Row | Compound | IC50
33 | 6-(7-((4,4-Difluoropiperidin- 1-yl)methyl)-9H-xanthen-4- yl)-4-morpholino pyridin-2 (1H)-one [Example 2-2-39] | < 100 nM
